Test results from ChEMBL document CHEMBL1141234, “Synthesis and SAR of highly potent dual 5-HT1A and 5-HT1B antagonists as potential antidepressant drugs” (Bioorg Med Chem Lett, 2005).

Columns and labels:
[1] = molecular target: T1, 5-hydroxytryptamine receptor 1B (Homo sapiens, UniProt P28222); test: Intrinsic activity for 5HT1B receptor in FLIPR assay; format: functional
[2] = molecular target: T2, 5-hydroxytryptamine receptor 1A (Homo sapiens, UniProt P08908); test: Displacement of [35S]GTP-gamma-S from human recombinant 5HT1A receptor; format: functional
T2 sequence (P08908 whole entry): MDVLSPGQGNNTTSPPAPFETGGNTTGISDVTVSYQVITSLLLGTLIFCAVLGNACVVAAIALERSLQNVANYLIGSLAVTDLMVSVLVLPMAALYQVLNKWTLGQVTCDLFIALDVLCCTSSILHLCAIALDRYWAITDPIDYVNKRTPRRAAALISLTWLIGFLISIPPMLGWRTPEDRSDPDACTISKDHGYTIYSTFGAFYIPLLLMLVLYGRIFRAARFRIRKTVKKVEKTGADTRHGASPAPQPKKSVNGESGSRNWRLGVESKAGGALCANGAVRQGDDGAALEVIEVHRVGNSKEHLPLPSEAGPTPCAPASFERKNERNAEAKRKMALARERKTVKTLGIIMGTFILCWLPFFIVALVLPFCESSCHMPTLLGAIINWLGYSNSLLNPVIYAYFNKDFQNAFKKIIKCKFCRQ

[3] = molecular target: T3, 5-hydroxytryptamine receptor 1A (Homo sapiens) (UniProt P08908); test: Intrinsic activity for 5HT1A receptor in [35S]GTP-gamma-S assay; format: functional
T3 sequence (whole entry): T2 sequence (P08908 whole entry)

[4] = molecular target: T1, 5-hydroxytryptamine receptor 1B; test: Inhibitory activity against human recombinant 5HT1B receptor co-expressed with G-protein chimera Gqo5 in HEK293 cells by FLIPR; format: functional, cell-based
[5] = molecular target: T3, 5-hydroxytryptamine receptor 1A (Homo sapiens); test: Functional activity in [35S]GTP-gamma-S assay for 5HT1A receptor
[6] = molecular target: T1, 5-hydroxytryptamine receptor 1B; test: Functional activity in FLIPR assay for 5HT1B receptor
[7] = molecular target: T4, Adrenergic receptor alpha-1 (Homo sapiens, UniProt P35348+P25100+P35368); test: Inhibitory activity against Adrenergic alpha-1 receptor; format: protein assay
T4 sequence (P35348 whole entry): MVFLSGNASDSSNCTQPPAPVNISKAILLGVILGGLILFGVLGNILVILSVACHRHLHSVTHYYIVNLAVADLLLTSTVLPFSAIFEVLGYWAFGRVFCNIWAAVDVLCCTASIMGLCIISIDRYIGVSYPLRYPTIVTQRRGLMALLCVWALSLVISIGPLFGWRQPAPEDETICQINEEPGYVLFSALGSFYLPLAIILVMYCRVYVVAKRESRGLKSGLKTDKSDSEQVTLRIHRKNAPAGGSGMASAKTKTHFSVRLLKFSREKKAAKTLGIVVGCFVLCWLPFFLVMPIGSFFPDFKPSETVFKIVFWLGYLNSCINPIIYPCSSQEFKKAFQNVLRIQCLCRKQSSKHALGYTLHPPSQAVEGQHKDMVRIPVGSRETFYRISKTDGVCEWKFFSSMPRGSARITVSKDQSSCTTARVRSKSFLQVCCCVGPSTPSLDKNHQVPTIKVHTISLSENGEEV
T4 sequence (P25100 whole entry): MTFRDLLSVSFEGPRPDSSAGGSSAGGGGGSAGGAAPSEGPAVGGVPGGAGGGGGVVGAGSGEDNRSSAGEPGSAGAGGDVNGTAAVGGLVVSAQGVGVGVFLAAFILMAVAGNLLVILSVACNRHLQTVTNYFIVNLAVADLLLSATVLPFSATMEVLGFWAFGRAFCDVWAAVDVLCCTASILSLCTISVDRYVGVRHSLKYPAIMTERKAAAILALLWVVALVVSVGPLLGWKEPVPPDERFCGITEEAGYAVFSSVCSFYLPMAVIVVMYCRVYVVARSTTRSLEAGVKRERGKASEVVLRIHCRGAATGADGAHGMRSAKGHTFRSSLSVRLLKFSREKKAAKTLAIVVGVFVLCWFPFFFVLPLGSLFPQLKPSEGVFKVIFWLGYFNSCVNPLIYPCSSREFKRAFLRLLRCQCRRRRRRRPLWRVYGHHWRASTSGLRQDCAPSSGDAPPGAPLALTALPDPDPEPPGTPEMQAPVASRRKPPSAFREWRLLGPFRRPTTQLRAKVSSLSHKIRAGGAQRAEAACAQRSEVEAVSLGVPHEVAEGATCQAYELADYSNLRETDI
T4 sequence (P35368 whole entry): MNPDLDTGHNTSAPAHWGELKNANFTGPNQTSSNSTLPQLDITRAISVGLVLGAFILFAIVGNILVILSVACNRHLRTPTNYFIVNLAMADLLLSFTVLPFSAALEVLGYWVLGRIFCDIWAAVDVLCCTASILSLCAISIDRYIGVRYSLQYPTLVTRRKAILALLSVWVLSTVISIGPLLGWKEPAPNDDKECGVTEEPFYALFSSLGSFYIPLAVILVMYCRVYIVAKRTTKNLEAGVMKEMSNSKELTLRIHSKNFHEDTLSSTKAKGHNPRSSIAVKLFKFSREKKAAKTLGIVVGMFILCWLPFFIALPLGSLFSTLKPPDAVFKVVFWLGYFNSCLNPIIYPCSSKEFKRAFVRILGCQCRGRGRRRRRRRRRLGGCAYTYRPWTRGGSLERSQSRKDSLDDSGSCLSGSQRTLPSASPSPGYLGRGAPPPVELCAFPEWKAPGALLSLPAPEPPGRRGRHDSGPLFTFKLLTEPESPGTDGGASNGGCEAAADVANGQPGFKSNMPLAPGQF

T1 sequence (P28222 whole entry): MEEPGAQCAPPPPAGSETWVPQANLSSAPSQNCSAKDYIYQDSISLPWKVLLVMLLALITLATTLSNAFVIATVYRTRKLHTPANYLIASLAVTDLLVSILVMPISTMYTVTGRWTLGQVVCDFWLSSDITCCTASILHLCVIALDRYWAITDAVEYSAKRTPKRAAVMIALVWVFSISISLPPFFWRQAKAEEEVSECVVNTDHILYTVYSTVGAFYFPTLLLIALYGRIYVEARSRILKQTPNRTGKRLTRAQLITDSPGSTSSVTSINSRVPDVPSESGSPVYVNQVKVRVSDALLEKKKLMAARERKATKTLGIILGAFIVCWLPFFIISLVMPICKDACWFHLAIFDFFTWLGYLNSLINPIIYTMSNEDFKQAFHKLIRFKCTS

SMILES	Emax [1]	Ki [2]	Emax [3]	Ki [4]	Activity ([5]; filed as antagonist)	Activity ([6]; filed as antagonist)	Ki [7]	Activity ([5]; filed as partial agonist)	Activity ([6]; filed as partial agonist)	Activity ([6]; filed as agonist)	Activity ([5]; filed as agonist)
COc1ccc(Cl)cc1N1CCN(CCn2cnc3sc4c(c3c2=O)CCN(C)C4)CC1	< 20%	3 nM	< 10%	70.3 nM	Antagonist	Antagonist	0.1 nM	–	–	–	–
CN1CCc2c(sc3ncn(CCN4CCN(c5ccccc5Oc5ccccc5)CC4)c(=O)c23)C1	20%	0.9 nM	10%	1.1 nM	–	–	0.5 nM	Partial agonist	Partial agonist	–	–
COc1ccc(-c2ccccc2)cc1N1CCN(CCn2cnc3sc4c(c3c2=O)CCN(C)C4)CC1	–	429 nM	–	116 nM	–	–	0.1 nM	–	–	–	–
CN1CCc2c(sc3ncn(CCN4CCN(c5ccc6ccccc6n5)CC4)c(=O)c23)C1	20%	9.1 nM	10%	36.6 nM	–	–	121.1 nM	Partial agonist	Partial agonist	–	–
CN1CCc2c(sc3ncn(CCN4CCN(c5ncnc6ccccc56)CC4)c(=O)c23)C1	> 80%	93.4 nM	< 10%	320 nM	Antagonist	–	6780 nM	–	–	Agonist	–
CN1CCc2c(sc3ncn(CCN4CCN(c5ccccc5OCc5ccccc5)CC4)c(=O)c23)C1	20%	1.9 nM	10%	1.2 nM	–	–	4 nM	Partial agonist	Partial agonist	–	–
CN1CCc2c(sc3ncn(CCN4CCN(c5ccccc5C#N)CC4)c(=O)c23)C1	> 80%	2.5 nM	10%	1.4 nM	–	–	1.8 nM	Partial agonist	–	Agonist	–
CN1CCc2c(sc3ncn(CCN4CCN(c5cccc6ccncc56)CC4)c(=O)c23)C1	20%	0.3 nM	10%	0.1 nM	–	–	1.2 nM	Partial agonist	Partial agonist	–	–
COc1ccc(C(F)(F)F)cc1N1CCN(CCn2cnc3sc4c(c3c2=O)CCN(C)C4)CC1	–	104 nM	–	42.3 nM	–	–	18 nM	–	–	–	–
CN1CCc2c(sc3ncn(CCN4CCN(c5cccc6cccnc56)CC4)c(=O)c23)C1	20%	0.2 nM	10%	0.3 nM	–	–	1.2 nM	Partial agonist	Partial agonist	–	–
COc1cc(Cl)ccc1N1CCN(CCn2cnc3sc4c(c3c2=O)CCN(C)C4)CC1	< 20%	18.8 nM	10%	3.3 nM	–	Antagonist	0.5 nM	Partial agonist	–	–	–
COc1cc(Cl)c(Cl)cc1N1CCN(CCn2cnc3sc4c(c3c2=O)CCN(C)C4)CC1	< 20%	2.5 nM	10%	4.9 nM	–	Antagonist	0.2 nM	Partial agonist	–	–	–
CN1CCc2c(sc3ncn(CCN4CCN(c5ccccc5Cl)CC4)c(=O)c23)C1	20%	2.8 nM	10%	1.7 nM	–	–	1 nM	Partial agonist	Partial agonist	–	–
CN1CCc2c(sc3ncn(CCN4CCN(c5nccc6ccccc56)CC4)c(=O)c23)C1	20%	0.7 nM	10%	0.5 nM	–	–	41.1 nM	Partial agonist	Partial agonist	–	–
CN1CCc2c(sc3ncn(CCN4CCN(c5cccc6ccsc56)CC4)c(=O)c23)C1	< 20%	0.4 nM	10%	0.4 nM	–	Antagonist	0.5 nM	Partial agonist	–	–	–
CN1CCc2c(sc3ncn(CCN4CCN(c5ccccc5OCC(C)(C)C)CC4)c(=O)c23)C1	< 20%	2.5 nM	10%	5.4 nM	–	Antagonist	0.2 nM	Partial agonist	–	–	–
CN1CCc2c(sc3ncn(CCN4CCN(c5cccc6ccccc56)CC4)c(=O)c23)C1	20%	0.7 nM	10%	0.5 nM	–	–	13.2 nM	Partial agonist	Partial agonist	–	–
COc1ccc2ccccc2c1N1CCN(CCn2cnc3sc4c(c3c2=O)CCN(C)C4)CC1	20%	11.8 nM	10%	5.4 nM	–	–	4.5 nM	Partial agonist	Partial agonist	–	–
Cc1ccccc1N1CCN(CCn2cnc3sc4c(c3c2=O)CCN(C)C4)CC1	20%	2.9 nM	< 10%	3.5 nM	Antagonist	–	1.7 nM	–	Partial agonist	–	–
CC(C)Oc1ccccc1N1CCN(CCn2cnc3sc4c(c3c2=O)CCN(C)C4)CC1	< 20%	0.7 nM	10%	2.5 nM	–	Antagonist	0.1 nM	Partial agonist	–	–	–
COc1ccc(OC)c(N2CCN(CCn3cnc4sc5c(c4c3=O)CCN(C)C5)CC2)c1	< 20%	24.2 nM	< 10%	50.2 nM	Antagonist	Antagonist	8.4 nM	–	–	–	–
COc1c(Cl)cccc1N1CCN(CCn2cnc3sc4c(c3c2=O)CCN(C)C4)CC1	20%	2.5 nM	10%	0.5 nM	–	–	7 nM	Partial agonist	Partial agonist	–	–
CN1CCc2c(sc3ncn(CCN4CCN(c5cccc6ncccc56)CC4)c(=O)c23)C1	20%	1.5 nM	< 10%	1.7 nM	Antagonist	–	26.7 nM	–	Partial agonist	–	–
COc1ccc(C)cc1N1CCN(CCn2cnc3sc4c(c3c2=O)CCN(C)C4)CC1	< 20%	5.6 nM	10%	11.9 nM	–	Antagonist	12.1 nM	Partial agonist	–	–	–
COc1c(Cl)cc(Cl)cc1N1CCN(CCn2cnc3sc4c(c3c2=O)CCN(C)C4)CC1	20%	25.8 nM	> 70%	3.8 nM	–	–	14.8 nM	–	Partial agonist	–	Agonist
